Measured values taken from US8703736B2, “Therapeutic target for pancreatic cancer cells” (The Translational Genomics Research Institute, priority 2011, dated 2014).
pIC50: −log10 of the molar value. Where two headings read alike, the source gives them in different places. One block for each compound: values may come before it.

Legend:
[1] = test system: co-culture of human pancreatic cancer-derived myofibroblasts and SU8686 cells; experiment: Co-culture stained for aSMA and collagen 1 (FIG. 7); type: cell-based; conditions: 72 hours
[2] = test system: collagen 1 in CW1 myofibroblasts and SU8686 cells; experiment: Collagen 1 expression in single and co-cultures, dot blot (FIG. 8); type: cell-based, human
Experimental: Fasudil reduces collagen synthesis in co-cultured pancreatic cells: The effects of fasudil on the expression of collagen 1 in single and co-cultures of human myofibroblasts and SU8686 cells were examined. These cells were seeded and then treated with fasudil for 72 hours at the concentrations indicated. Treatment conditions are shown at top of the figure panel, and standard curve concentrations are shown below the figure panel (FIG. 8A). Calibrated collagen concentrations were shown in FIG. 8B (20 μg total protein loaded per sample). […] Fasudil inhibits collagen expression in cultured human stellate cells: The analysis of collagen expression in cultured human stellate cells exposed to Fasudil was carried out using quantitative PCR analysis of Collagen 1 mRNA levels.

[3] = test system: Collagen 1 mRNA in cultured human stellate cells; experiment: Quantitative PCR analysis of Collagen 1 mRNA levels (FIG. 11); type: cell-based; conditions: highest concentration of fasudil (100 μm)
Experimental: Fasudil inhibits collagen expression in cultured human stellate cells: The analysis of collagen expression in cultured human stellate cells exposed to Fasudil was carried out using quantitative PCR analysis of Collagen 1 mRNA levels.

[4] = test system: Su8686; experiment: Drug dose-response curves, cell proliferation, Su8686; type: cell-based; conditions: Homo sapiens
Experimental: (§1) Efficacy of ROCK inhibition evaluated by drug dose-response curves: The small molecule ROCK1 inhibitors, fasudil and Y27632, were analyzed for their effects in pancreatic cancer cell lines. Drug dose-response curves were created to assess the efficacy of ROCK inhibition at 72 hours of drug exposure. FIG. 5A presents the drug dose-response curves for fasudil exposure in MiaPaca, Su8686, Panc-1 and CW1 cell line cells. FIG. 5B presents the drug dose-response curves for Y-27632 exposure in the same above mentioned cell lines. Gemcitabine, a nucleoside analog, replaces one of the building blocks, cytidine, during DNA replication and thus arrests tumor growth, which leads to cell death. Gemcitabine is shown for reference as illustrated in FIG. 5C.

[5] = test system: Panc-1 cells; experiment: SRB (Sulphorhodamine) cell viability assay with fasudil; type: cell-based, human
Experimental: To further study the effects of fasudil at these concentrations on growth, an SRB (Sulphorhodamine) cell viability assay was performed. […] In both FIGS. 6A and 6B, “UT” stands for untreated; and “SFM” stands for serum-free media.

[6] = test system: Panc-1 cells; experiment: Modified Boyden Chamber Assay, cell migration; type: cell-based, human; conditions: at both 500 μM and 20 μM
[7] = test system: MiaPaca2; experiment: Drug dose-response curves, cell proliferation, MiaPaca2; type: cell-based; conditions: Homo sapiens, read-out: ROCK1 inhibition, IC50 values
Experimental: as §1

[8] = test system: PDA cell proliferation; experiment: Inhibition of PDA cell proliferation (summary over cell lines); type: cell-based; conditions: Homo sapiens; range over cell lines of TABLE 2; 72 hours; read-out: IC50s range, inhibition of PDA cell proliferation
Experimental: as §1

[9] = test system: co-culture of human pancreatic cancer-derived fibroblasts and SU8686 cells; experiment: Co-culture stained for cytokeratin and αSMA (FIG. 12); type: cell-based; conditions: 72 hours
Text: Fasudil inhibits stellate cell proliferation and function: The effects of fasudil on the proliferation and expansion of the stromal compartment in a co-culture of human pancreatic cancer-derived fibroblasts and SU8686 cells were compared. […] Subsequently, cells were fixed and stained for the epithelial cell marker, cytokeratin, in green, and αSMA, in red.

[10] = test system: Panc-1; experiment: Drug dose-response curves, cell proliferation, Panc-1; type: cell-based; conditions: Homo sapiens, read-out: cell proliferation, IC50 values
Experimental: as §1

[11] = test system: CW1; experiment: Drug dose-response curves, cell proliferation, CW1; type: cell-based; conditions: Homo sapiens, read-out: ROCK1 inhibition, IC50 values
Experimental: as §1

[12] = SU.86.86, Su8686 cell line, 72 hours of drug exposure, read-out: ROCK1 inhibition, IC50 values
[13] = MIA PaCa-2, MiaPaca2 cell line, 72 hours of drug exposure
[14] = Panc-1 cell line, 72 hours of drug exposure, read-out: ROCK1 inhibition, IC50 values
[15] = CW1 cell line, 72 hours of drug exposure

pIC50 [7, 13]: 4.26
pIC50 [10, 14]: < 4.00
Compound: O=S(=O)(c1cccc2cnccc12)N1CCCNCC1 [Fasudil, 5-(1,4-diazepan-1-ylsulfonyl)isoquinoline]
inhibition of aSMA and collagen 1 expressing myofibroblasts ([1]; 50 μM, 25 μM, and 12 μM): selectively inhibited
cell proliferation of both cancer cells and myofibroblasts relative to untreated ([1]; 100 μM): significant reduction in cell proliferation
collagen synthesis relative to the untreated sample ([2]; 100 μM, 50 μM, and 25 μM, 72 hours): significant reduction in collagen synthesis
collagen expression, dot blot on protein lysates ([2]; monocultured stellate cells (CW1) and co-cultured tumor/stellate cells (CW1/SU8686), 6-100 μm): Decreased collagen expression
collagen expression (Collagen 1 mRNA) [3]: three-fold decrease in collagen expression
pIC50 [4, 12]: 4.15
cytotoxicity ([5]; 20 μM): no significant cytotoxicity
cell survival ([5]; 500 μM, 24 hours): 50.3%
migrating cells relative to serum (chemoattractant) containing media control [6]: significant reduction in migrating cells
pIC50 [8]: 4.15 to 5.22
inhibition of aSMA expressing cells (stellate cells) ([9]; 50 μM, 25 μM, and 12 μM): selectively inhibited
cell proliferation of both cancer cells and stellate cells relative to untreated ([9]; 100 μM): significant reduction in cell proliferation
pIC50 [11, 15]: 4.18

pIC50 [7, 13]: 7.25
pIC50 [10, 14]: < 4.00
Compound: Nc1ccn([C@@H]2O[C@H](CO)[C@@H](O)C2(F)F)c(=O)n1 [Gemcitabine]
pIC50 [4, 12]: 7.77
pIC50 [11, 15]: < 4.00

Compound: CC(N)C1CCC(C(=O)Nc2ccncc2)CC1 (stereo not drawn) [Y27632, 4-(1-aminoethyl)-N-pyridin-4-yl-cyclohexane-1-carboxamide]
pIC50 ([4]; SU.86.86, 72 h): 4.55
pIC50 ([7]; MIA PaCa-2, 72 h): 5.17
pIC50 [8]: 4.15 to 5.22
pIC50 ([10]; PANC-1, 72 h): < 4.00
pIC50 ([11]; 72 h): 5.19
